Test results from patent US6903133B2, “Anticancer compounds” (Plantaceutica, Inc., priority 2002, dated 2005).

System: KB cells
Assay: cytotoxicity against KB cells (sulforhodamine B assay)
Assay type: cell-based
Conditions: KB cells (nasopharyngeal carcinoma cells); result in words only
Procedure: Podophyllotoxin derivatives of this invention can be preliminarily screened for their efficacy in treating cancer by in vitro assays. For example, podophyllotoxin derivatives can be tested for their cytotoxicity against KB cells (nasopharyngeal carcinoma). More specifically, a test compound can be added to a culture of KB cells and its IC50 (i.e., the concentration of the test compound which achieves a half-maximal inhibition of cell growth) is determined using the sulforhodamine B (a protein binding dye) assay as described in J.N.C.I. (1990) 82: 1107. The podophyllotoxin derivatives of this invention are also tested for their abilitives to inhibit DNA topoisomerase II in vitro as described in Cho et al. (1996 J. Med. Chem. 39: 1396) and to stimulate protein-linked DNA breaks (PLDB) in KB cells as described in Rowe et al. (1986 Cancer Res. 46:2021). DNA topoisomerase II is a well known target for cancer treatment drugs. See, e.g., MacDonald et al. (1991) DNA Topoisomerase in Cancer; Oxford University Press: New York.
A number of compounds of this invention were evaluated for cytotoxicity against KB cells, which are nasopharyngeal carcinoma cells. They were also tested for stimulation of cellular protein-linked DNA breaks (PLDB) using etoposide as a positive control. Etopside is a widely-used antineoplastic agent, see, e.g., Zhang et al. (1994) J. Med. Chem. 37: 446.

| Compound | IC50 values against KB cells |
| --- | --- |
| COc1cc([C@@H]2c3cc4c(cc3[C@@H](Nc3nc(COC(C)=O)cs3)[C@@H]3COC(=O)[C@H]23)OCO4)cc(OC)c1O [Compound 36, 4′-O-demethyl-4β-[4″-(methyl-O-acetyl)-2″-thiazolylamino]-4-desoxypodophyllotoxin] | unexpectedly low |
| CCOC(=O)c1ccc(N[C@@H]2c3cc4c(cc3[C@@H](c3cc(OC)c(O)c(OC)c3)[C@H]3C(=O)OC[C@H]32)OCO4)nc1 [Compound 39] | unexpectedly low |
| CCOC(=O)c1sc(N[C@@H]2c3cc4c(cc3[C@@H](c3cc(OC)c(O)c(OC)c3)[C@H]3C(=O)OC[C@H]32)OCO4)nc1C [Compound 45, 4′-O-demethyl-4β-(5″-ethoxycarbonyl-4″-methyl-2″-thiazolylamino)-4-desoxypodophyllotoxin] | unexpectedly low |
| COc1cc([C@@H]2c3cc4c(cc3[C@@H](Nc3ncc([N+](=O)[O-])s3)[C@@H]3COC(=O)[C@H]23)OCO4)cc(OC)c1O [Compound 49, 4′-O-demethyl-4β-(5″-nitro-2″-thiazolylamino)-4-desoxypodophyllotoxin] | unexpectedly low |
